Reference: ChEMBL document CHEMBL4507273 (2021)

Legend:
[1] = system: ALK tyrosine kinase receptor (Homo sapiens), Q9UM73 [C1156Y]; settings: Compound concentration 1000.0 nM
[2] = molecular target: Cytoplasmic tyrosine-protein kinase BMX (Homo sapiens) (UniProt P51813); settings: Compound concentration 1000.0 nM
[3] = molecular target: Receptor-interacting serine/threonine-protein kinase 1 (Homo sapiens) (UniProt Q13546); settings: Compound concentration 1000.0 nM
[4] = molecular target: Protein kinase C theta type (Homo sapiens) (UniProt Q04759); settings: Compound concentration 1000.0 nM
[5] = molecular target: cAMP-dependent protein kinase catalytic subunit alpha (Homo sapiens) (UniProt P17612); settings: Compound concentration 1000.0 nM
[6] = molecular target: GABA-A receptor; anion channel (Rattus norvegicus) (UniProt O09028+P15431+P18506+P18508+P19969+P20236+P23574+P23576+P28471+P28473+P30191+P62813+P63079+P63138+Q91ZM7+Q9ES14); settings: Compound concentration 10.0 uM
[7] = molecular target: Alpha-2A adrenergic receptor (Homo sapiens, UniProt P08913); assay: GPCRScan assay: inhibition of Alpha2A; set-up: radioligand conc. used [nm] 1.0 – 3.0, parental cells stable MDCK
[8] = molecular target: STE20/SPS1-related proline-alanine-rich protein kinase (Homo sapiens) (UniProt Q9UEW8); settings: Compound concentration 1000.0 nM
[9] = molecular target: Kappa-type opioid receptor (Homo sapiens, UniProt P41145); settings: Compound concentration 10.0 uM
[10] = molecular target: Rhodopsin kinase GRK7 (Homo sapiens) (UniProt Q8WTQ7); settings: Compound concentration 1000.0 nM
[11] = molecular target: Serine/threonine-protein kinase ULK1 (Homo sapiens) (UniProt O75385); settings: Compound concentration 1000.0 nM
[12] = molecular target: Protein kinase C delta type (Homo sapiens) (UniProt Q05655); settings: Compound concentration 1000.0 nM
[13] = molecular target: 5-hydroxytryptamine receptor 2A (Homo sapiens, UniProt P28223); assay: GPCRScan assay: inhibition of 5-HT2A; set-up: radioligand conc. used [nm] 1.2 – 2.4, parental cells HEKT
[14] = molecular target: MAP kinase-interacting serine/threonine-protein kinase 1 (Homo sapiens) (UniProt Q9BUB5); settings: Compound concentration 1000.0 nM
[15] = molecular target: Ribosomal protein S6 kinase alpha-6 (Homo sapiens) (UniProt Q9UK32); settings: Compound concentration 1000.0 nM
[16] = molecular target: Protein kinase C iota type (Homo sapiens) (UniProt P41743); settings: Compound concentration 1000.0 nM
[17] = molecular target: Rhodopsin kinase GRK1 (Homo sapiens) (UniProt Q15835); settings: Compound concentration 1000.0 nM
[18] = molecular target: Mitogen-activated protein kinase kinase kinase kinase 4 (Homo sapiens) (UniProt O95819); settings: Compound concentration 1000.0 nM
[19] = molecular target: Serine/threonine-protein kinase Sgk3 (Homo sapiens) (UniProt Q96BR1); settings: Compound concentration 1000.0 nM
[20] = system: Leucine-rich repeat serine/threonine-protein kinase 2 (Homo sapiens), Q5S007 [G2019S]; settings: Compound concentration 1000.0 nM
[21] = molecular target: Cyclin-G-associated kinase (Homo sapiens) (UniProt O14976); settings: Compound concentration 1000.0 nM
[22] = molecular target: Serine/threonine-protein kinase B-raf (Homo sapiens) (UniProt P15056); settings: Compound concentration 1000.0 nM
[23] = molecular target: Cyclin-dependent kinase 13 (Homo sapiens) (UniProt Q14004); settings: Compound concentration 1000.0 nM
[24] = molecular target: cAMP-dependent protein kinase catalytic subunit beta (Homo sapiens) (UniProt P22694); settings: Compound concentration 1000.0 nM
[25] = molecular target: Serine/threonine-protein kinase tousled-like 2 (Homo sapiens) (UniProt Q86UE8); settings: Compound concentration 1000.0 nM
[26] = molecular target: Muscarinic acetylcholine receptor M3 (Homo sapiens, UniProt P20309); settings: Compound concentration 10.0 uM
[27] = molecular target: Mitogen-activated protein kinase 13 (Homo sapiens) (UniProt O15264); settings: Compound concentration 1000.0 nM
[28] = molecular target: Serine/threonine-protein kinase Chk2 (Homo sapiens) (UniProt O96017); settings: Compound concentration 1000.0 nM
[29] = system: Phosphatidylinositol 4,5-bisphosphate 3-kinase catalytic subunit alpha isoform (Homo sapiens), P42336 [E545A]; settings: Compound concentration 1000.0 nM
[30] = molecular target: Misshapen-like kinase 1 (Homo sapiens) (UniProt Q8N4C8); settings: Compound concentration 1000.0 nM
[31] = molecular target: TGF-beta receptor type-2 (Homo sapiens) (UniProt P37173); settings: Compound concentration 1000.0 nM
[32] = molecular target: Serine/threonine-protein kinase Nek7 (Homo sapiens) (UniProt Q8TDX7); settings: Compound concentration 1000.0 nM
[33] = molecular target: T1, Testis-specific serine/threonine-protein kinase 1 (Homo sapiens) (UniProt Q9BXA7); settings: Compound concentration 1000.0 nM
T1 sequence (whole entry): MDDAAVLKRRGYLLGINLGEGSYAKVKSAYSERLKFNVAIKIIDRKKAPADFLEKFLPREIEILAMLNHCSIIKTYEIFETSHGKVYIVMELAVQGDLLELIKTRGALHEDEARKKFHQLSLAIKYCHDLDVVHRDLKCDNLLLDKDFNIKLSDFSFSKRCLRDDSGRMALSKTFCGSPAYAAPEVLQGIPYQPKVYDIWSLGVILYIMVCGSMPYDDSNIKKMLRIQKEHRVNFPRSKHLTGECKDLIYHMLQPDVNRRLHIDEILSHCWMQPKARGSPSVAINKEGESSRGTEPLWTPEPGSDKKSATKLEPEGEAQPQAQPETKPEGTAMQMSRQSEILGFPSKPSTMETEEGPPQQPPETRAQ

[34] = molecular target: Cyclin-dependent kinase-like 5 (Homo sapiens) (UniProt O76039); settings: Compound concentration 1000.0 nM
[35] = molecular target: Cyclin-dependent kinase 11B (Homo sapiens) (UniProt P21127); settings: Compound concentration 1000.0 nM
[36] = molecular target: Cyclin-dependent kinase-like 2 (Homo sapiens) (UniProt Q92772); settings: Compound concentration 1000.0 nM
Sequence of Cyclin-dependent kinase-like 2 (Homo sapiens) (Q92772 whole entry): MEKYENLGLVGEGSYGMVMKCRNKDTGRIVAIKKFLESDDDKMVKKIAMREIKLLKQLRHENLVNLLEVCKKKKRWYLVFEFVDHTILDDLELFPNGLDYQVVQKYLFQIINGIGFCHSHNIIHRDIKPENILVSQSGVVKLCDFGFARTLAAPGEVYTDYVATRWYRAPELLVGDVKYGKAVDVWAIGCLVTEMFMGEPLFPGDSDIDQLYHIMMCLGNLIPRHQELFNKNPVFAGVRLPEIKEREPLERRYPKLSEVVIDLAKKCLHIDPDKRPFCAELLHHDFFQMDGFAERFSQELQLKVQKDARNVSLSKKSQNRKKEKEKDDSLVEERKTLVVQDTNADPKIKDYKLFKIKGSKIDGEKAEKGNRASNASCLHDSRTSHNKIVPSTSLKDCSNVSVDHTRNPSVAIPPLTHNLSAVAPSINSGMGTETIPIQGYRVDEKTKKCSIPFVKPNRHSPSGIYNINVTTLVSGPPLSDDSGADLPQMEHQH

Sequence of 5-hydroxytryptamine receptor 2A (P28223 whole entry): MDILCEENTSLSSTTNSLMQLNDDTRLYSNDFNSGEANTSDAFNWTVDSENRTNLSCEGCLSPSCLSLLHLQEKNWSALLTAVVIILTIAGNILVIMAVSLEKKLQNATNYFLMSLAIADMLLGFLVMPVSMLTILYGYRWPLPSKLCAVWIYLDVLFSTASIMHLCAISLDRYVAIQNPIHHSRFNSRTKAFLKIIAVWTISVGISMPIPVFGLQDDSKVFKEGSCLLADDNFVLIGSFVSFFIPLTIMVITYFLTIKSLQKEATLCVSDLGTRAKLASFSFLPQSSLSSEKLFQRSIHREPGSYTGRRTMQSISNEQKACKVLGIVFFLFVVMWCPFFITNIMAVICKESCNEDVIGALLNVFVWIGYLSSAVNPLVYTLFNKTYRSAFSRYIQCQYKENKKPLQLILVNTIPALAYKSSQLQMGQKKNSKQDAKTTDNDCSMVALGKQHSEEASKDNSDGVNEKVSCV
Sequence of Cyclin-G-associated kinase (Homo sapiens) (O14976 whole entry): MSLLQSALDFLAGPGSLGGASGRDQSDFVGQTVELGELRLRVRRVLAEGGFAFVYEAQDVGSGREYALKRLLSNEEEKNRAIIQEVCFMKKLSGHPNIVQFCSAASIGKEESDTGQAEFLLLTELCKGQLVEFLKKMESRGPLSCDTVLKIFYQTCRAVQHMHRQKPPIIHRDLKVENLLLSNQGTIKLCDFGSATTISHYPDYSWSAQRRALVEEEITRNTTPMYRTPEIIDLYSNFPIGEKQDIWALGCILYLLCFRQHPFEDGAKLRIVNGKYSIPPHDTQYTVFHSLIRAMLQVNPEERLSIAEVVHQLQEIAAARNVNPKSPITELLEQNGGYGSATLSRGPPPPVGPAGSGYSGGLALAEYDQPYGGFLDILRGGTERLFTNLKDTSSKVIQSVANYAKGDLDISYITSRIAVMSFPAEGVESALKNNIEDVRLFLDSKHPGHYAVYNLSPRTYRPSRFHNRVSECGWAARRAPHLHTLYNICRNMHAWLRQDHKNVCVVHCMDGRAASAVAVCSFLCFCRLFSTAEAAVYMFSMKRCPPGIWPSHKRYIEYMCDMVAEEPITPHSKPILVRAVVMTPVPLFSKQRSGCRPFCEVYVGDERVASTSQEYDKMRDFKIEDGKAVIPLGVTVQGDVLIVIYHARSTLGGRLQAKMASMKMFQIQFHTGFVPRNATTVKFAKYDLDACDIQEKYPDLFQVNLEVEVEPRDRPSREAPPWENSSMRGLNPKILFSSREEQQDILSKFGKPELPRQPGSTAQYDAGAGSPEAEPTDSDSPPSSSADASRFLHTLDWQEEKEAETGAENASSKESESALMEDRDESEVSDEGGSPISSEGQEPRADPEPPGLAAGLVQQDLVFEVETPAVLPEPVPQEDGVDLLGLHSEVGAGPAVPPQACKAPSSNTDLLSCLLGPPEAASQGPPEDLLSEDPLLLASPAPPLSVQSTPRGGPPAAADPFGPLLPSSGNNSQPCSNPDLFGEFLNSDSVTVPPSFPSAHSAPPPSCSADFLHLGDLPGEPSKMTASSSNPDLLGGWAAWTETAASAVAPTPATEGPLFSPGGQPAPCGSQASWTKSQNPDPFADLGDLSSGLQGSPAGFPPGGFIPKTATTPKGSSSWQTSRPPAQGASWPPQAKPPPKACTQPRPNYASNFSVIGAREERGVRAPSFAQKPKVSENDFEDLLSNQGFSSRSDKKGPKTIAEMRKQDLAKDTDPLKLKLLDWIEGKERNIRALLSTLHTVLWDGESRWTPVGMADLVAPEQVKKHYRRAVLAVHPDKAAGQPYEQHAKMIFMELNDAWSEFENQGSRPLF
Sequence of Serine/threonine-protein kinase tousled-like 2 (Homo sapiens) (Q86UE8 whole entry, looked up): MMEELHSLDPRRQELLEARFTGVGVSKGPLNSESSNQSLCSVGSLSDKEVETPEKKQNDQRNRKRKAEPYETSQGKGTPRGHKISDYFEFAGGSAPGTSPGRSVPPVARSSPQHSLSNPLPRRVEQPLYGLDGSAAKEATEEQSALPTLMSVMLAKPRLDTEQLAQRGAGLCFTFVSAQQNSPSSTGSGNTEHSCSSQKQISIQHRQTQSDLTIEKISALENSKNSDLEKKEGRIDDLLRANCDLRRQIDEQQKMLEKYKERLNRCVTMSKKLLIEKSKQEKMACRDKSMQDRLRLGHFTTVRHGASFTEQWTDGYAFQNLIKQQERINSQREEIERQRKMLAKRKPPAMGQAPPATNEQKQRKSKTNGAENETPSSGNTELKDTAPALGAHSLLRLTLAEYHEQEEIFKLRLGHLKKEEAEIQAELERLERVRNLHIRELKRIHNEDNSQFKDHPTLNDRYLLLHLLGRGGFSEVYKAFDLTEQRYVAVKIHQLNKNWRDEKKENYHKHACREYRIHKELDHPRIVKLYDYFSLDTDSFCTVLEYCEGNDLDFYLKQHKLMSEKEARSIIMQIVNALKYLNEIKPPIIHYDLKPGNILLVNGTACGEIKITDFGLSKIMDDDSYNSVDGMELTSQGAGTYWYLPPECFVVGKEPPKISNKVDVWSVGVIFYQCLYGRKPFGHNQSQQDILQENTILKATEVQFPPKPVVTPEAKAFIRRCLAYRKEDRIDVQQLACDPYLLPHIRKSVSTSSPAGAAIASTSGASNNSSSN
Sequence of Protein kinase C delta type (Homo sapiens) (Q05655 whole entry, looked up): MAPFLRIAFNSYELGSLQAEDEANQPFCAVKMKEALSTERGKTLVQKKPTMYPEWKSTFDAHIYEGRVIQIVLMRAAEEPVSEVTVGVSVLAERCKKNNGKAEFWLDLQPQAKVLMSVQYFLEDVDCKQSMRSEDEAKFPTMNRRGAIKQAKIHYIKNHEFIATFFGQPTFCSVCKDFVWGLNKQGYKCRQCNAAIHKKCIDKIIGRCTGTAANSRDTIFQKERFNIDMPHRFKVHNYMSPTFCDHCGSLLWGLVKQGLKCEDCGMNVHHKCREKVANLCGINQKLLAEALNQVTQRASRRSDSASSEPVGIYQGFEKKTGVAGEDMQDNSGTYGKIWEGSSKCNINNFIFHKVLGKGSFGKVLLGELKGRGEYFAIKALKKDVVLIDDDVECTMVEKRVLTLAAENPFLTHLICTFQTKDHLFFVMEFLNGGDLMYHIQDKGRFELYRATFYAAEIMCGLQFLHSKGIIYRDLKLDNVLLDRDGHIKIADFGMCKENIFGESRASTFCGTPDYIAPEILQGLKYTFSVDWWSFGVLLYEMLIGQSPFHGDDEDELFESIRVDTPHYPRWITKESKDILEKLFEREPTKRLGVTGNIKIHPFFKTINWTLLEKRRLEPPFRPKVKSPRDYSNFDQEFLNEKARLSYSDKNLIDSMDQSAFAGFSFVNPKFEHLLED
Sequence of TGF-beta receptor type-2 (Homo sapiens) (P37173 whole entry): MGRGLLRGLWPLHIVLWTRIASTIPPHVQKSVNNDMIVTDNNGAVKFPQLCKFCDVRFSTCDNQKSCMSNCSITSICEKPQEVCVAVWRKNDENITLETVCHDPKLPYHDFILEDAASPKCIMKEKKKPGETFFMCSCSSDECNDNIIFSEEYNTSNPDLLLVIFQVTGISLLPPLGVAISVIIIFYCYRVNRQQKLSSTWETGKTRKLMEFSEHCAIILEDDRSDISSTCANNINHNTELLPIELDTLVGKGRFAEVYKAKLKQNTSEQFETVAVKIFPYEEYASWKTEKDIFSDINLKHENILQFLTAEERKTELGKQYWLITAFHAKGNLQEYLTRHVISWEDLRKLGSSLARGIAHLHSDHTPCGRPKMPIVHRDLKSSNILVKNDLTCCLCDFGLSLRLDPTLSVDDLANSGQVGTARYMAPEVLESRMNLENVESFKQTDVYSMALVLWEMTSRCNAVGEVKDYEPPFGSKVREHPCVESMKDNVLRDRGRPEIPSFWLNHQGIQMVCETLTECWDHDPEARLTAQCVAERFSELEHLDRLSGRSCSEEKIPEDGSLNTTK
Sequence of Serine/threonine-protein kinase Nek7 (Homo sapiens) (Q8TDX7 whole entry, looked up): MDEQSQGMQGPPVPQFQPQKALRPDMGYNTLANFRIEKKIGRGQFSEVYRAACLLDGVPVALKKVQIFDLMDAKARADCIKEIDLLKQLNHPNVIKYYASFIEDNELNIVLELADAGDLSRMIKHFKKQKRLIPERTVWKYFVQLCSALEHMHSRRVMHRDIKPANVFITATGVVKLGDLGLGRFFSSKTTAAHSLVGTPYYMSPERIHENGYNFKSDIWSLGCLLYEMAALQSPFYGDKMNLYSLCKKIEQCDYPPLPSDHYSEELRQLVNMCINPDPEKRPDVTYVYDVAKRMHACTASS
Sequence of Kappa-type opioid receptor (P41145 whole entry): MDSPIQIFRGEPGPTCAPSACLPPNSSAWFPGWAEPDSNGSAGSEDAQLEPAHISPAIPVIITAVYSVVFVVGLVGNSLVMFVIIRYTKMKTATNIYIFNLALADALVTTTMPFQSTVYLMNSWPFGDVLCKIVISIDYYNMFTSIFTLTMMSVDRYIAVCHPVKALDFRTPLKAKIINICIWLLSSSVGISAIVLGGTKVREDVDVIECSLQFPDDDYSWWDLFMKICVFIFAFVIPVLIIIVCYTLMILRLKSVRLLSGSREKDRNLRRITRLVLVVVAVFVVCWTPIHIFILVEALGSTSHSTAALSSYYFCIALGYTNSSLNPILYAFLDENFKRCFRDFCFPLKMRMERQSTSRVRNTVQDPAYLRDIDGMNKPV

SMILES	residual activity [1]	residual activity [2]	residual activity [3]	residual activity [4]	residual activity [5]	inhibition [6]	Ki [7]	residual activity [8]	inhibition [9]	residual activity [10]	residual activity [11]	residual activity [12]	Ki ([13]; read-out: Ki)	residual activity [14]	residual activity [15]	residual activity [16]	residual activity [17]	residual activity [18]	residual activity [19]	residual activity [20]	other results
CNCc1ccccc1-c1csc([C@H](C)Nc2nc(C)nc3cc(OC)c(OC)cc23)c1 [BAY-294]	100%	58%	100%	100%	100%	9.67%	127 nM	100%	64.4%	89%	91%	100%	69.4 nM	91%	100%	87%	100%	97%	93%	84%	residual activity [21]: 90%; residual activity [22]: 97%; residual activity [23]: 93%; residual activity [24]: 100%; residual activity [25]: 100%; inhibition [26]: 48%; residual activity [27]: 100%; residual activity [28]: 87%; residual activity [29]: 97%; residual activity [30]: 88%; residual activity [31]: 97%; residual activity [32]: 100%; residual activity [33]: 93%; residual activity [34]: 87%; residual activity [35]: 100%; residual activity [36]: 100%
CNCc1ccccc1-c1csc([C@@H](C)Nc2nc(C)nc3cc(OC)c(OC)cc23)c1 [BAY-293]	100%	49%	97%	100%	100%	12.3%	381 nM	100%	26.9%	83%	88%	98%	133 nM	83%	100%	100%	99%	100%	78%	72%	Ki ([13]; read-out: pKi (converted)): 110 nM; residual activity [21]: 88%; residual activity [22]: 100%; residual activity [23]: 89%; residual activity [24]: 100%; residual activity [25]: 90%; inhibition [26]: 56.5%; residual activity [27]: 100%; residual activity [28]: 76%; residual activity [29]: 91%; residual activity [30]: 57%; residual activity [31]: 91%; residual activity [32]: 100%; residual activity [33]: 59%; residual activity [34]: 94%; residual activity [35]: 100%; residual activity [36]: 99%
